In the supplement of paper PMC10307832:

Columns and labels:
Experiment in all cases: relative viability (nuclei count vs DMSO), 5 days (fraction); higher = more cells survive
GSK-J4 + Tozasertib = compound: CCOC(=O)CCNc1cc(N2CCc3ccccc3CC2)nc(-c2ccccn2)n1 [GSK-J4] + Cc1cc(Nc2cc(N3CCN(C)CC3)nc(Sc3ccc(NC(=O)C4CC4)cc3)n2)n[nH]1 [Tozasertib] (partner 0.1 µM)
How it was run: (§1)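 A single step with final 0.05% Triton X-100, 1% formaldehyde and 1 ug/ml Hoechst fixed the cells and stained nuclei 5 days after treatment. Lung cancer cell lines in 1536-well plates had been treated by pin tool the day after seeding with one drug alone or a fixed anchor-drug dose plus five library-drug doses (not always all listed) in √10 steps, and nuclei were counted on 4× images. Relative viability is the ratio of nuclei in treated wells to nuclei in vehicle wells, taken as the median of duplicate plates.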

AZ3146 + Navitoclax = compound: CN1CCC(CC1)OC2=CC(=C(C=C2)NC3=NC=C4C(=N3)N(C(=O)N4C)C5CCCC5)OC [AZ3146] + CC1(C)CCC(c2ccc(Cl)cc2)=C(CN2CCN(c3ccc(C(=O)NS(=O)(=O)c4ccc(N[C@H](CCN5CCOCC5)CSc5ccccc5)c(S(=O)(=O)C(F)(F)F)c4)cc3)CC2)C1 [Navitoclax] (partner 0.5 µM)
How it was run: as §1

AZ3146 + Crizotinib = compound: CN1CCC(CC1)OC2=CC(=C(C=C2)NC3=NC=C4C(=N3)N(C(=O)N4C)C5CCCC5)OC [AZ3146] + C[C@@H](Oc1cc(-c2cnn(C3CCNCC3)c2)cnc1N)c1c(Cl)ccc(F)c1Cl [Crizotinib] (partner 1 µM)
How it was run: as §1

AZ3146 + Pemetrexed = compound: CN1CCC(CC1)OC2=CC(=C(C=C2)NC3=NC=C4C(=N3)N(C(=O)N4C)C5CCCC5)OC [AZ3146] + Nc1nc2[nH]cc(CCc3ccc(C(=O)N[C@@H](CCC(=O)O)C(=O)O)cc3)c2c(=O)[nH]1 [Pemetrexed] (partner 0.2 µM)
How it was run: as §1

Cell Line: HCC-827
- relative viability (GSK-J4 + Tozasertib; first compound 0.5 µM): 0.408
- relative viability (GSK-J4 + Tozasertib; first compound 1.581 µM): 0.434
- relative viability (GSK-J4 + Tozasertib; first compound 5 µM): 0.44
- relative viability (GSK-J4 + Tozasertib; first compound 15.81 µM): 0.4
- relative viability (GSK-J4 + Tozasertib; first compound 50 µM): 0.362
- relative viability (AZ3146 + Navitoclax; first compound 0.08 µM): 0.964
- relative viability (AZ3146 + Navitoclax; first compound 0.253 µM): 1.02
- relative viability (AZ3146 + Navitoclax; first compound 0.8 µM): 0.997
- relative viability (AZ3146 + Navitoclax; first compound 2.53 µM): 1.02
- relative viability (AZ3146 + Navitoclax; first compound 8 µM): 0.998
- relative viability (AZ3146 + Crizotinib; first compound 0.08 µM): 0.943
- relative viability (AZ3146 + Crizotinib; first compound 0.253 µM): 0.859
- relative viability (AZ3146 + Crizotinib; first compound 0.8 µM): 1.04
- relative viability (AZ3146 + Crizotinib; first compound 2.53 µM): 0.913
- relative viability (AZ3146 + Crizotinib; first compound 8 µM): 0.911
- relative viability (AZ3146 + Pemetrexed; first compound 0.08 µM): 0.291
- relative viability (AZ3146 + Pemetrexed; first compound 0.253 µM): 0.244
- relative viability (AZ3146 + Pemetrexed; first compound 0.8 µM): 0.252
- relative viability (AZ3146 + Pemetrexed; first compound 2.53 µM): 0.269
- relative viability (AZ3146 + Pemetrexed; first compound 8 µM): 0.248

Cell Line: IA-LM
- relative viability (AZ3146 + Navitoclax; first compound 0.08 µM): 0.713
- relative viability (AZ3146 + Navitoclax; first compound 0.253 µM): 0.785
- relative viability (AZ3146 + Navitoclax; first compound 0.8 µM): 0.699
- relative viability (AZ3146 + Navitoclax; first compound 2.53 µM): 0.881
- relative viability (AZ3146 + Navitoclax; first compound 8 µM): 0.156
- relative viability (AZ3146 + Crizotinib; first compound 0.253 µM): 0.654
- relative viability (AZ3146 + Crizotinib; first compound 0.8 µM): 0.898
- relative viability (AZ3146 + Crizotinib; first compound 2.53 µM): 0.615
- relative viability (AZ3146 + Crizotinib; first compound 8 µM): 0.115

Cell Line: NCI-H1623
- relative viability (GSK-J4 + Tozasertib; first compound 0.5 µM): 0.437
- relative viability (GSK-J4 + Tozasertib; first compound 1.581 µM): 0.467
- relative viability (GSK-J4 + Tozasertib; first compound 5 µM): 0.455
- relative viability (GSK-J4 + Tozasertib; first compound 15.81 µM): 0.435
- relative viability (GSK-J4 + Tozasertib; first compound 50 µM): 0.451

Cell Line: NCI-H3122
- relative viability (GSK-J4 + Tozasertib; first compound 0.5 µM): 0.516
- relative viability (GSK-J4 + Tozasertib; first compound 5 µM): 0.371
- relative viability (GSK-J4 + Tozasertib; first compound 15.81 µM): 0.275
- relative viability (GSK-J4 + Tozasertib; first compound 50 µM): 0.442
- relative viability (AZ3146 + Navitoclax; first compound 0.08 µM): 1.05
- relative viability (AZ3146 + Navitoclax; first compound 0.253 µM): 0.985
- relative viability (AZ3146 + Navitoclax; first compound 0.8 µM): 1.03
- relative viability (AZ3146 + Navitoclax; first compound 2.53 µM): 1
- relative viability (AZ3146 + Navitoclax; first compound 8 µM): 1.03
- relative viability (AZ3146 + Crizotinib; first compound 0.08 µM): 0.294
- relative viability (AZ3146 + Crizotinib; first compound 0.253 µM): 0.299
- relative viability (AZ3146 + Crizotinib; first compound 0.8 µM): 0.274
- relative viability (AZ3146 + Crizotinib; first compound 2.53 µM): 0.305
- relative viability (AZ3146 + Crizotinib; first compound 8 µM): 0.27
- relative viability (AZ3146 + Pemetrexed; first compound 0.08 µM): 0.197
- relative viability (AZ3146 + Pemetrexed; first compound 0.253 µM): 0.191
- relative viability (AZ3146 + Pemetrexed; first compound 0.8 µM): 0.203
- relative viability (AZ3146 + Pemetrexed; first compound 2.53 µM): 0.2
- relative viability (AZ3146 + Pemetrexed; first compound 8 µM): 0.185

Cell Line: RERF-LC-KJ
- relative viability (GSK-J4 + Tozasertib; first compound 0.5 µM): 0.415
- relative viability (GSK-J4 + Tozasertib; first compound 1.581 µM): 0.428
- relative viability (GSK-J4 + Tozasertib; first compound 5 µM): 0.483
- relative viability (GSK-J4 + Tozasertib; first compound 15.81 µM): 0.493
- relative viability (GSK-J4 + Tozasertib; first compound 50 µM): 0.357
- relative viability (AZ3146 + Navitoclax; first compound 0.08 µM): 0.872
- relative viability (AZ3146 + Navitoclax; first compound 0.253 µM): 0.878
- relative viability (AZ3146 + Navitoclax; first compound 0.8 µM): 1.04
- relative viability (AZ3146 + Navitoclax; first compound 2.53 µM): 0.787
- relative viability (AZ3146 + Navitoclax; first compound 8 µM): 0.839
- relative viability (AZ3146 + Crizotinib; first compound 0.08 µM): 0.794
- relative viability (AZ3146 + Crizotinib; first compound 0.253 µM): 0.864
- relative viability (AZ3146 + Crizotinib; first compound 0.8 µM): 0.816
- relative viability (AZ3146 + Crizotinib; first compound 2.53 µM): 0.864
- relative viability (AZ3146 + Crizotinib; first compound 8 µM): 0.66
- relative viability (AZ3146 + Pemetrexed; first compound 0.08 µM): 0.43
- relative viability (AZ3146 + Pemetrexed; first compound 0.253 µM): 0.485
- relative viability (AZ3146 + Pemetrexed; first compound 0.8 µM): 0.461
- relative viability (AZ3146 + Pemetrexed; first compound 2.53 µM): 0.473
- relative viability (AZ3146 + Pemetrexed; first compound 8 µM): 0.488

Cell Line: NCI-H1703
- relative viability (AZ3146 + Navitoclax; first compound 0.08 µM): 1.06
- relative viability (AZ3146 + Navitoclax; first compound 0.253 µM): 0.91
- relative viability (AZ3146 + Navitoclax; first compound 0.8 µM): 0.993
- relative viability (AZ3146 + Navitoclax; first compound 2.53 µM): 0.708
- relative viability (AZ3146 + Navitoclax; first compound 8 µM): 0.283
- relative viability (AZ3146 + Crizotinib; first compound 0.08 µM): 0.447
- relative viability (AZ3146 + Crizotinib; first compound 0.253 µM): 0.59
- relative viability (AZ3146 + Crizotinib; first compound 0.8 µM): 0.384
- relative viability (AZ3146 + Crizotinib; first compound 2.53 µM): 0.365
- relative viability (AZ3146 + Crizotinib; first compound 8 µM): 0.241

Cell Line: HCC-15
- relative viability (GSK-J4 + Tozasertib; first compound 0.5 µM): 0.393
- relative viability (GSK-J4 + Tozasertib; first compound 5 µM): 0.344
- relative viability (GSK-J4 + Tozasertib; first compound 15.81 µM): 0.319
- relative viability (GSK-J4 + Tozasertib; first compound 50 µM): 0.2
- relative viability (AZ3146 + Navitoclax; first compound 0.08 µM): 0.725
- relative viability (AZ3146 + Navitoclax; first compound 0.253 µM): 0.659
- relative viability (AZ3146 + Navitoclax; first compound 0.8 µM): 0.703
- relative viability (AZ3146 + Navitoclax; first compound 2.53 µM): 0.718
- relative viability (AZ3146 + Navitoclax; first compound 8 µM): 0.727
- relative viability (AZ3146 + Crizotinib; first compound 0.08 µM): 0.83
- relative viability (AZ3146 + Crizotinib; first compound 0.253 µM): 0.863
- relative viability (AZ3146 + Crizotinib; first compound 0.8 µM): 0.768
- relative viability (AZ3146 + Crizotinib; first compound 2.53 µM): 0.677
- relative viability (AZ3146 + Crizotinib; first compound 8 µM): 0.445
- relative viability (AZ3146 + Pemetrexed; first compound 0.08 µM): 0.222
- relative viability (AZ3146 + Pemetrexed; first compound 0.253 µM): 0.22
- relative viability (AZ3146 + Pemetrexed; first compound 0.8 µM): 0.221
- relative viability (AZ3146 + Pemetrexed; first compound 2.53 µM): 0.224
- relative viability (AZ3146 + Pemetrexed; first compound 8 µM): 0.207

Cell Line: NCI-H1666
- relative viability (GSK-J4 + Tozasertib; first compound 0.5 µM): 0.606
- relative viability (GSK-J4 + Tozasertib; first compound 1.581 µM): 0.499
- relative viability (GSK-J4 + Tozasertib; first compound 5 µM): 0.635
- relative viability (GSK-J4 + Tozasertib; first compound 15.81 µM): 0.534
- relative viability (GSK-J4 + Tozasertib; first compound 50 µM): 0.502
- relative viability (AZ3146 + Navitoclax; first compound 0.08 µM): 0.859
- relative viability (AZ3146 + Navitoclax; first compound 0.253 µM): 0.805
- relative viability (AZ3146 + Navitoclax; first compound 0.8 µM): 0.951
- relative viability (AZ3146 + Navitoclax; first compound 2.53 µM): 1.05
- relative viability (AZ3146 + Navitoclax; first compound 8 µM): 0.81
- relative viability (AZ3146 + Crizotinib; first compound 0.08 µM): 1.08
- relative viability (AZ3146 + Crizotinib; first compound 0.253 µM): 1.01
- relative viability (AZ3146 + Crizotinib; first compound 0.8 µM): 1.08
- relative viability (AZ3146 + Crizotinib; first compound 2.53 µM): 0.934
- relative viability (AZ3146 + Crizotinib; first compound 8 µM): 0.778
- relative viability (AZ3146 + Pemetrexed; first compound 0.08 µM): 0.771
- relative viability (AZ3146 + Pemetrexed; first compound 0.253 µM): 0.825
- relative viability (AZ3146 + Pemetrexed; first compound 0.8 µM): 0.83
- relative viability (AZ3146 + Pemetrexed; first compound 2.53 µM): 0.901
- relative viability (AZ3146 + Pemetrexed; first compound 8 µM): 0.788
